Assay results from ChEMBL document CHEMBL1132420, “Vasopeptidase inhibitors: incorporation of geminal and spirocyclic substituted azepinones in mercaptoacyl dipeptides” (J Med Chem, 1999).

What was measured:
[1] = target: T1, Neprilysin (Rattus norvegicus, UniProt P07861); assay: In vitro inhibitory activity against purified rat kidney neutral endopeptidase (NEP) using a fluorometric assay with dansyl-Gly-Phe-Arg as the substrate
T1 sequence (P07861 whole entry): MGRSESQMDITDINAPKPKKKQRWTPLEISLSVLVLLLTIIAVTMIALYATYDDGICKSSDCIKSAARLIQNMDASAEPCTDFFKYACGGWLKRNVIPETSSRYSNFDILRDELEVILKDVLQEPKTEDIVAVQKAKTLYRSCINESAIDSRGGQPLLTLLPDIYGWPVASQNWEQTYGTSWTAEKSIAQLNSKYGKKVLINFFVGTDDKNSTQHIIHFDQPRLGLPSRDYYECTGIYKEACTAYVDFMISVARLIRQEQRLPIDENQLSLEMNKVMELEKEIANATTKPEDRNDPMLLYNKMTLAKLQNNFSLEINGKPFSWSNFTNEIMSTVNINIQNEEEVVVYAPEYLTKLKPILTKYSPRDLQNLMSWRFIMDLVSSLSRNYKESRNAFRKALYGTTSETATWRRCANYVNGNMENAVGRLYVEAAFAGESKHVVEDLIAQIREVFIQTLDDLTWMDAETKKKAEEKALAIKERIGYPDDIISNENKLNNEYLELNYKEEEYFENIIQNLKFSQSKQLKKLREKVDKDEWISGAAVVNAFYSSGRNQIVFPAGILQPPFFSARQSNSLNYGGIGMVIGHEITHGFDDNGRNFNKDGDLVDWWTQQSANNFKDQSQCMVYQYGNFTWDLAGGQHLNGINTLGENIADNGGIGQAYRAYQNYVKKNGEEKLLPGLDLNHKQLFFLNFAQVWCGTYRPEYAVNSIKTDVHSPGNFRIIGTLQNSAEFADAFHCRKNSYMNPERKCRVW

[2] = target: T2, Angiotensin-converting enzyme (Oryctolagus cuniculus, UniProt P12822); assay: In vitro inhibitory activity against Angiotensin I converting enzyme (ACE) isolated from rabbit lung extract using hippuryl-L-histidyl-L-leucine (HHL) as the substrate
T2 sequence (P12822 whole entry): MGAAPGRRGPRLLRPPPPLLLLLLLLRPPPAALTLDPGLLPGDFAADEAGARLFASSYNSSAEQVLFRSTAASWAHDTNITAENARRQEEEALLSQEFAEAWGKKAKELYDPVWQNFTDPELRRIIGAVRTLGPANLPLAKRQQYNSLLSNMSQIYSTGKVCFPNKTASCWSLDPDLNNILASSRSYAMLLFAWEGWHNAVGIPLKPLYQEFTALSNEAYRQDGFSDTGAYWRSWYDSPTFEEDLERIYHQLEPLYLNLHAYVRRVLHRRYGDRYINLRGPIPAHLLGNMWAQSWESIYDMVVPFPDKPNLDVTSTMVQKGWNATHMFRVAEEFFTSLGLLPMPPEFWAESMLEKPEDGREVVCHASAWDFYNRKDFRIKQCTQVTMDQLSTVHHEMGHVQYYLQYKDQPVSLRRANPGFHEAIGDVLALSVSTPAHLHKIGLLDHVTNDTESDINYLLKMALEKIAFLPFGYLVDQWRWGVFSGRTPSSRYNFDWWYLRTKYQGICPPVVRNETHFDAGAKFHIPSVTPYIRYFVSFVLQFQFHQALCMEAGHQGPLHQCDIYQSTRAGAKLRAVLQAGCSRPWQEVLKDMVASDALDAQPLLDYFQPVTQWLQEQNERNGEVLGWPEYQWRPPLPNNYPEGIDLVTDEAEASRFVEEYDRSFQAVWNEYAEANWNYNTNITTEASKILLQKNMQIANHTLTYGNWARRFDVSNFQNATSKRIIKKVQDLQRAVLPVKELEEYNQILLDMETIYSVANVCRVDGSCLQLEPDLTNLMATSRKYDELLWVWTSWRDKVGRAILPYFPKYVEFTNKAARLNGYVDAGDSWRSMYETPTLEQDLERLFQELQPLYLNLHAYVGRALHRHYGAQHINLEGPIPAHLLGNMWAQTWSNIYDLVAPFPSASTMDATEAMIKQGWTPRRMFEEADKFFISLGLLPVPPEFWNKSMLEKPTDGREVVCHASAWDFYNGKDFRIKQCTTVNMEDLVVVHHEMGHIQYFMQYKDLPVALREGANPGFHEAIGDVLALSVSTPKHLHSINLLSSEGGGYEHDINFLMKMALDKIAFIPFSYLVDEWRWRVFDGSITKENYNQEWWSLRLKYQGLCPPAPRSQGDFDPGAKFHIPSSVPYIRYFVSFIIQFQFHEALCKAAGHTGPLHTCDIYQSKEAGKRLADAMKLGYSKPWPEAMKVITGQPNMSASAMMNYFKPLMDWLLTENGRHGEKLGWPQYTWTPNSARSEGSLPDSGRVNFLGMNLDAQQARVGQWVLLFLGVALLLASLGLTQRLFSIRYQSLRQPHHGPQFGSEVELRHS

[3] = organism: Rattus norvegicus; assay: Compound is evaluated for the dose required for 50% inhibition of AI pressor response in normotensive rats; assay type: functional

SMILES	IC50 [1]	IC50 [2]	ED50 [3]
O=C(O)CN1C(=O)[C@@H](NC(=O)[C@@H](S)Cc2ccccc2)CCCC12CCC2	641 nM	29 nM	–
O=C(O)CN1C(=O)[C@@H](NC(=O)[C@@H](S)Cc2ccccc2)CCCC12CC2	377 nM	9.6 nM	–
CC1(C)CCC[C@H](NC(=O)[C@@H](S)Cc2ccccc2)C(=O)N1CC(=O)O [GEMOPATRILAT]	63 nM	12 nM	0.1 µmol/kg

Now those with a lower IC50 [2], led by results:

IC50 [1]	IC50 [2]	SMILES	ED50 [3]
426 nM	6 nM	O=C(O)CN1C(=O)[C@@H](NC(=O)[C@@H](S)Cc2ccccc2)CCCC12CCCC2	–
–	8.2 nM	C[C@H]1CCC[C@H](NC(=O)[C@@H](S)Cc2ccccc2)C(=O)N1CC(=O)O	–
